Laboratory results reported in PubChem BioAssay AID1963426 (Molecular Pharmacology Branch, DTP, NCI, 2024).

Test system: 186277-243-T-J2-PDC complex spheroid growth, % test/control
Test: Anticancer human tumor 186277-243-T-J2-PDC patient-derived colon adenocarcinoma cell line growth inhibition [Asc]
Conditions: for IC50: curve of first compound; for viability, T/C: stronger effect = lower value; active means viability on the fitted dose curve at most 10% of control; inactive means the rest
Procedure: Multicellular complex tumor spheroid response to apoptosis pathway targeting inhibitors Alrizomadlin, Pelcitoclax, and Dasminapant in combination with a variety of drugs and investigational agents in selected tumor cell lines
The MDM2 inhibitor alrizomadlin, the Bcl-2/Bcl-xL inhibitor pelcitoclax, and the IAPs inhibitor dasminapant were evaluated both individually and in combination with standard of care and investigational anticancer small molecules within a complex spheroid model of solid tumors. . Complex spheroids include a stromal component modeled by human endothelial cells (HUVEC) and fibroblasts modeled by human mesenchymal stem cells (MSCs). The concentration ranges selected for each drug and investigational agent were based upon clinically achievable concentrations if the clinical Cmax of the agent was known.
Compounds. The drugs and investigational agents: alrizomadlin (APG-115; NSC831270), pelcitoclax (APG-1252; NSC835773), dasminapant (APG-1387;NSC834197), TAK-243 (NSC785004), copanlisib (NSC809693), olaparib (NSC753686), talazoparib (NSC767125), cobimetinib (NSC 768068), eltanexor (KPT-8602, NSC 794443), abemaciclib (NSC 768073), sotorasib (NSC818433), adagrasib (NSC 831453), MRTX-1133 (NSC 836407), Iadademestat (ORY1001, NSC 806812), and RMC-4630 (NSC839698), were obtained from the NCI Developmental Therapeutics Program Chemical Repository. The FDA-approved anticancer drug set is available from the Developmental Therapeutics Program at https://dtp.cancer.gov/organization/dscb/obtaining/available plates.htm. […] The stock solutions were prepared in dimethyl sulfoxide (DMSO, Sigma-Aldrich, St. Louis, MO, cat. D2650) at 800-fold the tested concentration and stored at -70 degrees C prior to their use. All drugs and investigational agents were tested over a range starting from a high concentration at or near the clinical Cmax and decreasing in half-log increments. If the clinical Cmax for an agent had not been determined, the highest concentration tested was 10 microM.
The patient-derived cancer (PDC) cell lines include five colon adenocarcinomas: 186277-243-T-J2-PDC, 616215-338-R-J1-PDC, 439559-082-T-J2-PDC, 463943-066-T-J2-PDC, and 519858-162-T-J1-PDC; three pancreatic carcinomas: 323965-272-R-J2-PDC, 521955-158-R6-J3-PDC, and 521955-158-R2-J5-PDC; two uterine sarcomas: 327498-152-R-J2-PDC and 993429-296-R-J1-PDC; two rhabdomyosarcomas: 755483-174-R-J1-PDC and 772245-204-R-J1-PDC; two soft tissue sarcomas: 126254-015-R-J1-PDC and 494315-158-R-J1-PDC; two malignant fibrous histiocytomas: 317291-083-R-J1-PDC and 596521-263-R-J1-PDC; two breast carcinomas: 171881-019-R-J1-PDC and 885512-296-R-J2-PDC; and one ovarian carcinoma: 6556581-035-R-J-PDC were obtained from the NCI PDMR, (https://pdmr.cancer.gov). The established cell lines HSSY-2 synovial sarcoma (RRID:CVCL 8719), SYO-1 synovial sarcoma (RRID:CVCL_7146), MPNST malignant peripheral neural sheath tumor were obtained from the Sloan Kettering Institute. The following established cell lines were purchased from the American Type Culture Collection (ATCC, Manassas, VA), Sor the received from the NCI repository:, PANC-1 pancreatic carcinoma (CRL-1469, RRID:CVCL_0480), OVCAR-5 ovarian carcinoma (RRID:CVCL_1628), OVCAR-8 ovarian carcinoma (RRID:CVCL_1629), , MCF-7 breast carcinoma (CRL-12584, RRID:CVCL_0031), MDA-MB-231 breast carcinoma (CRL-12532, RRID:CVCL_0062), NCI-H1876 small cell lung carcinoma (CRL-5902, RRID:CVCL_1503), NCI-H510A small cell lung carcinoma (HTB-184, RRID:CVCL_1565), NCI-H1417 (CRL-5869, RRID:CVCL_1469), and NCI-H196 small cell lung carcinoma (CRL-5823, RRID:CVCL_1509). Dr. Peter Houghton (Greehey Children's Cancer Research Institute, University of Texas Health Science Center, San Antonio, TX) provided Rh-18 rhabdomyosarcoma (RRID:CVCL_1659). Pooled donor human umbilical vein endothelial cells (HUVEC, Lonza, cat. CC-2519) and human mesenchymal stem cells (hMSC, Lonza, cat. PT-2501) were purchased from Lonza (Walkersville, MD).
Cell Culture. […]

[1] = second compound 0.03 µM, first compound 0.0316 µM
[2] = second compound 0.03 µM, first compound 0.1 µM
[3] = second compound 0.0949 µM, first compound 0.0316 µM
[4] = second compound 0.0949 µM, first compound 0.1 µM
[5] = second compound 0.3 µM, first compound 0.0316 µM
[6] = second compound 0.3 µM, first compound 0.1 µM
[7] = second compound 0.949 µM, first compound 0.0316 µM
[8] = second compound 0.949 µM, first compound 0.1 µM
[9] = second compound 3 µM, first compound 0.0316 µM
[10] = second compound 3 µM, first compound 0.1 µM
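Further: spheroids exposed to agents for 7 days.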
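Wherever viability, T/C is given: 100% = DMSO vehicle control wells.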

Cn1ncnc1[C@H]1c2n[nH]c(=O)c3cc(F)cc(c23)N[C@@H]1c1ccc(F)cc1 + CCN1C(C(=O)NC23CCC(C(=O)O)(CC2)CC3)C(c2cccc(Cl)c2F)C2(C(=O)Nc3cc(Cl)ccc32)C12CCCCC2
inactive: viability, T/C (second compound 0.03 µM, first compound 0.000316 µM) 130% | viability, T/C (second compound 0.03 µM, first compound 0.001 µM) 116% | viability, T/C (second compound 0.03 µM, first compound 0.00316 µM) 107% | viability, T/C (second compound 0.03 µM, first compound 0.01 µM) 91.3% | viability, T/C [1] 80.9% | viability, T/C [2] 87.2% | viability, T/C (second compound 0.0949 µM, first compound 0.000316 µM) 98.3% | viability, T/C (second compound 0.0949 µM, first compound 0.001 µM) 82.1% | viability, T/C (second compound 0.0949 µM, first compound 0.00316 µM) 87.6% | viability, T/C (second compound 0.0949 µM, first compound 0.01 µM) 77.5% | viability, T/C [3] 76.5% | viability, T/C [4] 65.8% | viability, T/C (second compound 0.3 µM, first compound 0.000316 µM) 75% | viability, T/C (second compound 0.3 µM, first compound 0.001 µM) 69% | viability, T/C (second compound 0.3 µM, first compound 0.00316 µM) 65.9% | viability, T/C (second compound 0.3 µM, first compound 0.01 µM) 63.6% | viability, T/C [5] 63.1% | viability, T/C [6] 59.3% | viability, T/C (second compound 0.949 µM, first compound 0.000316 µM) 52.4% | viability, T/C (second compound 0.949 µM, first compound 0.001 µM) 56.5% | viability, T/C (second compound 0.949 µM, first compound 0.00316 µM) 49.4% | viability, T/C (second compound 0.949 µM, first compound 0.01 µM) 43% | viability, T/C [7] 42% | viability, T/C [8] 41.4% | viability, T/C (second compound 3 µM, first compound 0.000316 µM) 30.1% | viability, T/C (second compound 3 µM, first compound 0.001 µM) 32.3% | viability, T/C (second compound 3 µM, first compound 0.00316 µM) 31.9% | viability, T/C (second compound 3 µM, first compound 0.01 µM) 26% | viability, T/C [9] 22.9% | viability, T/C [10] 25.8%
2.14 nM: IC50 (second compound 0.949 µM)
< 0.316 nM: IC50 (second compound 3 µM)
> 100 nM: IC50 (second compound 0.03 µM) | IC50 (second compound 0.0949 µM) | IC50 (second compound 0.3 µM)

O=C(c1cc(Cc2n[nH]c(=O)c3ccccc23)ccc1F)N1CCN(C(=O)C2CC2)CC1 + CCN1C(C(=O)NC23CCC(C(=O)O)(CC2)CC3)C(c2cccc(Cl)c2F)C2(C(=O)Nc3cc(Cl)ccc32)C12CCCCC2
> 10000 nM: IC50 (second compound 0.03 µM) | IC50 (second compound 0.0949 µM) | IC50 (second compound 0.3 µM)
< 31.6 nM: IC50 (second compound 3 µM)
596 nM: IC50 (second compound 0.949 µM)
inactive: viability, T/C [1] 120% | viability, T/C [2] 135% | viability, T/C (second compound 0.03 µM, first compound 0.316 µM) 102% | viability, T/C (second compound 0.03 µM, first compound 1 µM) 99% | viability, T/C (second compound 0.03 µM, first compound 3.16 µM) 94.2% | viability, T/C (second compound 0.03 µM, first compound 10 µM) 82.4% | viability, T/C [3] 90% | viability, T/C [4] 95.1% | viability, T/C (second compound 0.0949 µM, first compound 0.316 µM) 93.9% | viability, T/C (second compound 0.0949 µM, first compound 1 µM) 85.6% | viability, T/C (second compound 0.0949 µM, first compound 3.16 µM) 91.6% | viability, T/C (second compound 0.0949 µM, first compound 10 µM) 79.4% | viability, T/C [5] 77.8% | viability, T/C [6] 90.8% | viability, T/C (second compound 0.3 µM, first compound 0.316 µM) 72.1% | viability, T/C (second compound 0.3 µM, first compound 1 µM) 67.2% | viability, T/C (second compound 0.3 µM, first compound 3.16 µM) 62.1% | viability, T/C (second compound 0.3 µM, first compound 10 µM) 60.8% | viability, T/C [7] 54.3% | viability, T/C [8] 51.7% | viability, T/C (second compound 0.949 µM, first compound 0.316 µM) 54.6% | viability, T/C (second compound 0.949 µM, first compound 1 µM) 45.7% | viability, T/C (second compound 0.949 µM, first compound 3.16 µM) 47% | viability, T/C (second compound 0.949 µM, first compound 10 µM) 40.9% | viability, T/C [9] 31.8% | viability, T/C [10] 33.5% | viability, T/C (second compound 3 µM, first compound 0.316 µM) 29.9% | viability, T/C (second compound 3 µM, first compound 1 µM) 32.4% | viability, T/C (second compound 3 µM, first compound 3.16 µM) 30.2% | viability, T/C (second compound 3 µM, first compound 10 µM) 26.5%
